Test results from patent US7968548B2, “Melanocortin receptor-specific piperazine compounds with diamine groups” (Palatin Technologies, Inc., priority 2005, dated 2011).

Key:
MC3-R = target: T1, MC3-R (Homo sapiens, UniProt P41968); assay: Competitive inhibition binding assay using [I125]-NDP-α-MSH, HEK-293 membranes, recombinant hMC3-R; settings: for inhibition at 1 µM: 1 μM compound
T1 construct: expressed in transfected cells; host or cells: HEK-293
Procedure: (§1) A competitive inhibition binding assay was performed using membrane homogenates prepared from HEK-293 cells that express recombinant hMC4-R, hMC3-R, or hMC5-R, and from B-16 mouse melanoma cells (containing endogenous MC1-R). In some instances, HEK-293 cells that express recombinant hMC1-R were employed. In the examples that follow, all MC3-R, MC4-R and MC5-R values are for human recombinant receptors. MC1-R values are for B-16 mouse melanoma cells, unless the heading is “hMC1-R”, in which case the value is for human recombinant MC1-R. Assays were performed in 96 well GF/B Millipore multiscreen filtration plates (MAFB NOB10) pre-coated with 0.5% bovine serum albumin (Fraction V). […] After incubation for 60 minutes at 37° C., the assay mixture was filtered and the membranes washed three times with ice-cold buffer. Filters were dried and counted in a gamma counter for bound radioactivity. […] Maximal specific binding (100%) was defined as the difference in radioactivity (cpm) bound to cell membranes in the absence and presence of 1 μM NDP-α-MSH. […] Each assay was conducted in triplicate and the actual mean values are described, with results less than 0% reported as 0%. Ki values for test compounds were determined using Graph-Pad Prism® curve-fitting software.

MC4-R [1] = target: T2, MC4-R (Homo sapiens, UniProt P32245); assay: Competitive inhibition binding assay using [I125]-NDP-α-MSH, HEK-293 membranes, recombinant hMC4-R; set-up: expressed in transfected cells; host or cells: HEK-293; settings: for inhibition at 1 µM: 1 μM compound
T2 sequence (P32245 whole entry): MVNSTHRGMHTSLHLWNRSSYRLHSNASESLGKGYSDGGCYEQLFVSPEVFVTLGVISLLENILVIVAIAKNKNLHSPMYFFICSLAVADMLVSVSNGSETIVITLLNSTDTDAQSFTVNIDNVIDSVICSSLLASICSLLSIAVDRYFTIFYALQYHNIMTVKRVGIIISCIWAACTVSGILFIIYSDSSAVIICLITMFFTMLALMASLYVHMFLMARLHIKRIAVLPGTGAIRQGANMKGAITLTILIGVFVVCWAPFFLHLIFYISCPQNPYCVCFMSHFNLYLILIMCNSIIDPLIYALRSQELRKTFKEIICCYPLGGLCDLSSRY
Procedure: as §1

MC5-R = target: T3, MC5-R (Homo sapiens, UniProt P33032); assay: Competitive inhibition binding assay using [I125]-NDP-α-MSH, HEK-293 membranes, recombinant hMC5-R; settings: for inhibition at 1 µM: 1 μM compound
T3 construct: expressed in transfected cells; host or cells: HEK-293
T3 sequence (P33032 whole entry): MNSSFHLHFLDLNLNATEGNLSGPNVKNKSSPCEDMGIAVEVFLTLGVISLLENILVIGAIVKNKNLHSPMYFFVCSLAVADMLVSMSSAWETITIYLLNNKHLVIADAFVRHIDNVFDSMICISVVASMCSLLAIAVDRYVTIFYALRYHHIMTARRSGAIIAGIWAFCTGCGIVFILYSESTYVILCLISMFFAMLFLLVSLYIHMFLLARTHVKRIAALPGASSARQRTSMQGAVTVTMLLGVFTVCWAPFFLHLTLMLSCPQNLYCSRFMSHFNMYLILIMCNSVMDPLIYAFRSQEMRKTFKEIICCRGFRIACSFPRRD
Procedure: as §1

MC1-R = target: T4, MC1-R (Mus musculus, UniProt Q01727); assay: Competitive inhibition binding assay using [I125]-NDP-α-MSH, B-16 mouse melanoma cell membranes; settings: B-16 mouse melanoma cells; for inhibition at 1 µM: 1 μM compound
T4 construct: from B-16 mouse melanoma cells (containing endogenous MC1-R); endogenous in cells; host or cells: B-16 mouse melanoma cells (membrane homogenates)
T4 sequence (Q01727 whole entry): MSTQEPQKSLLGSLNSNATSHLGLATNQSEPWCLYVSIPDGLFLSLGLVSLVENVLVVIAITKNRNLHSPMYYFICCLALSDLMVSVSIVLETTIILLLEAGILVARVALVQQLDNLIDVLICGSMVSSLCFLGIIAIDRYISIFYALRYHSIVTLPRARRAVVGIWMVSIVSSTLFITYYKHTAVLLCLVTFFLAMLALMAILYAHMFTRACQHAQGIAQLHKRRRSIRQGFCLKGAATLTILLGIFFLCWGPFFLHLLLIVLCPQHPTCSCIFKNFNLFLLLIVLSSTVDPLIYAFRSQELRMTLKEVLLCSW
Procedure: as §1

MC4-R [2] = target: T2, MC4-R; assay: Assay for agonist activity: cAMP accumulation in HEK-293 cells that express MC4-R; type: cell-based; set-up: expressed in transfected cells; host or cells: HEK-293; settings: HEK293; cell line that expresses MC4-R; relative to NDP-α-MSH; read-out: maximum effect observed, % of the maximum achieved with NDP-α-MSH (cAMP)
Procedure: Assay for agonist activity. Accumulation of intracellular cAMP was examined as a measure of the ability of the test compounds to elicit a functional response in HEK-293 cells that express MC4-R. Confluent HEK-293 cells that express recombinant hMC4-R were detached from culture plates by incubation in enzyme-free cell dissociation buffer. Dispersed cells were suspended in Earle's Balanced Salt Solution containing 10 mM HEPES (pH 7.5), 1 mM MgCl2, 1 mM glutamine, 0.5% albumin and 0.3 mM 3-isobutyl-1-methyl-xanthine (IBMX), a phosphodiesterase inhibitor. The cells were plated in 96-well plates at a density of 0.5×10^5 cells per well and pre-incubated for 30 minutes. Cells were exposed for 1 hour at 37° C. to test compounds dissolved in DMSO (final DMSO concentration of 1%) at a concentration range of 0.05-5000 nM in a total assay volume of 200 μL. NDP-α-MSH was used as the reference agonist. At the end of the incubation period, cells were disrupted by the addition of 50 μL of lysis buffer (cAMP EIA kit, Amersham) followed by vigorous pipetting. Levels of cAMP in the lysates were determined using a cAMP EIA kit (Amersham). Data analysis was performed by nonlinear regression analysis with Graph-Pad Prism® software. The maximum efficacies of the test compounds were compared to that achieved by the reference melanocortin agonist NDP-αMSH.

MC4-R [3] = target: T2, MC4-R; assay: Competitive binding assay using [I125]-AgRP (83-132); set-up: expressed in transfected cells; settings: hMC4-R membranes
Procedure: Competitive binding assay using [I^125]—AgRP (83-132). Competitive binding studies using [I^125]—AgRP (83-132) were carried out using membrane homogenates isolated from cells that express hMC4-R. The assays were performed in 96-well GF/B Millipore multiscreen filtration plates (MAFB NOB10) pre-coated with 0.5% bovine serum albumin (Fraction V). The assay mixture contained 25 mM HEPES buffer (pH 7.5) with 100 mM NaCl, 2 mM CaCl2, 2 mM MgCl2, 0.3 mM 1,10-phenanthroline, 0.5% bovine serum albumin, membrane homogenates, radioligand [I^125]—AgRP (83-132) (Perkin Elmer) and increasing concentrations of compounds in a total volume of 200 μL. Binding was measured at radioligand concentrations of 0.2 nM. After incubating for 1 hour at 37° C., the reaction mixture was filtered and washed with assay buffer containing 500 mM NaCl. The dried discs were punched out from the plate and counted on a gamma counter. […] Ki values for test compounds were determined using Graph-Pad Prism® curve-fitting software.

[4] = Mouse model IN feeding studies (body weight); type: in vivo; settings: 20 hours
Procedure: (§2) Food intake and body weight after IN and IP dosing. Changes in food intake and body weight were evaluated for selected compounds. Male C57BL/6 mice were obtained from Jackson labs (Bar Harbor, Me.). Animals were individually housed in conventional plexiglass hanging cages and maintained on a controlled 12 hour on/off light cycle. Water and pelleted (Harlan Teklad 2018 18% Protein Rodent Diet) food was provided ad libitum. The mice were dosed IP (by intraperitoneal injection) after a 24 hour fast or IN (by intranasal administration) with vehicle or selected compounds (0.1-3 mg/kg, and in some cases up to 10 mg/kg). All animals were dosed once a day (or up to four consecutive days) at the start of the “lights off” period. The changes in food intake for the 4 hour and 20 hour period after dosing relative to control animals administered vehicle were determined. Body weights were determine 4 hours prior to dosing and 20 hours after dosing, and the change in body weight relative to control animals administered vehicle were determined.

[5] = Mouse model IP feeding studies in fasted animals (food intake); type: in vivo; settings: 3 mg/kg, 20 hours
Procedure: as §2

hMC1-R = target: T5, hMC1-R (Homo sapiens, UniProt Q01726); assay: Competitive inhibition binding assay using [I125]-NDP-α-MSH, HEK-293 membranes, recombinant hMC1-R; settings: human recombinant MC1-R
T5 construct: expressed in transfected cells; host or cells: HEK-293
T5 sequence (Q01726 whole entry): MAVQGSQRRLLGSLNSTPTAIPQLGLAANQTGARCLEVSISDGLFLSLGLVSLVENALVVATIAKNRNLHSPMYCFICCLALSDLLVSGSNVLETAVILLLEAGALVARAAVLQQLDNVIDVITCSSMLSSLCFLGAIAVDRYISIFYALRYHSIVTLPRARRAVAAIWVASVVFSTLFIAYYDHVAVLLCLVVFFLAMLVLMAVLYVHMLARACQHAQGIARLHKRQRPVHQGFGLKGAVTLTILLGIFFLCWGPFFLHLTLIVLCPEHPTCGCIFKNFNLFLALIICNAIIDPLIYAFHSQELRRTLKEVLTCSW
Procedure: as §1

T1 sequence (P41968 whole entry): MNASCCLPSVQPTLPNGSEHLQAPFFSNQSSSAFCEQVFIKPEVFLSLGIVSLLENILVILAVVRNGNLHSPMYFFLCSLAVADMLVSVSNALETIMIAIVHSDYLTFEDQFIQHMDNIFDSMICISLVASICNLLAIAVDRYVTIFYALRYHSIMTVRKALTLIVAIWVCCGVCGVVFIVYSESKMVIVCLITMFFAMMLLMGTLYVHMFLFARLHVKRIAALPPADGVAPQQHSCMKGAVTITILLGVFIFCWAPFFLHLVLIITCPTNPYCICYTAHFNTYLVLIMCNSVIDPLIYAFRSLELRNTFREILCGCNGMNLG

Row | Compound | Ki (MC3-R) | inhibition at 1 µM (MC3-R) | Ki (MC4-R [1]) | inhibition at 1 µM (MC4-R [1]) | Ki (MC5-R) | inhibition at 1 µM (MC5-R) | inhibition at 1 µM (MC1-R) | Ki (MC1-R) | Emax (MC4-R [2]) | Ki (MC4-R [3]) | average decrease in body weight compared to control animals ([4]; 0.1 mg/kg) | average decrease in body weight compared to control animals ([4]; 0.3 mg/kg) | average decrease in body weight compared to control animals ([4]; 1 mg/kg) | average decrease in food intake compared to control animals [5] | Ki (hMC1-R)
1 | CC(C)C[C@@H]1CN(C(=O)[C@H](N)Cc2ccc(Cl)cc2Cl)[C@@H](CCCCNCCN)CN1C(=O)Cc1ccc2ccccc2c1 [Example 1, (R)-2-Amino-1-[(2S,5R)-2-[4-(2-amino-ethylamino)-butyl]-5-isobutyl-4-(2-naphthalen-2-yl-acetyl)-piperazin-1-yl]-3-(2,4-dichloro-phenyl)-propan-1-one] | 250 nM | 71% | 18 nM | 98% | 301 nM | 68% | 55% | 102 nM | 61% |  |  |  |  |  | 
2 | CC(C)C[C@@H]1CN(C[C@H](N)Cc2ccc(Cl)cc2Cl)[C@@H](CCCCNCCN)CN1C(=O)Cc1ccc2ccccc2c1 [Example 2, 1-{(2R,5S)-4-[(R)-2-Amino-3-(2,4-dichloro-phenyl)-propyl]-5-[4-(2-amino-ethylamino)-butyl]-2-isobutyl-piperazin-1-yl}-2-naphthalen-2-yl-ethanone] | 190 nM |  | 23 nM |  | 143 nM |  |  | 558 nM | 16% | 72 nM | 2.5% | 3% | 4.7% | 28% | 
3 | Cc1ccc(C[C@@H](N)CN2C[C@@H](C)N(C(=O)Cc3ccc4ccccc4c3)C[C@@H]2CCCNCCN)c(C)c1 [Example 3] | 320 nM | 82% | 160 nM | 92% | 20 nM | 94% | 41% | 660 nM |  |  |  |  |  |  | 
4 | Cc1ccc(C[C@@H](N)CN2C[C@@H](C)N(C(=O)Cc3ccc4ccccc4c3)C[C@@H]2CCCN2CCNCC2)c(C)c1 [Example 4] |  | 43% |  | 55% |  | 97% | 12% |  |  |  |  |  |  |  | 
5 | Cc1ccc(C[C@@H](N)CN2C[C@@H](C)N(C(=O)Cc3ccc4ccccc4c3)C[C@@H]2CCCNC2CCNC2)c(C)c1 (stereo partly drawn) [Example 5, 1-{(2R,5S)-4-[(R)-2-Amino-3-(2,4-dimethyl-phenyl)-propyl]-2-methyl-5-[3-(pyrrolidin-3-ylamino)-propyl]-piperazin-1-yl}-2-naphthalen-2-yl-ethanone] | 395 nM | 75% | 387 nM | 81% | 31 nM | 96% | 41% | 685 nM |  |  |  |  |  |  | 
6 | Cc1ccc(C[C@@H](N)CN2C[C@@H](C)N(C(=O)Cc3ccc4ccccc4c3)C[C@@H]2CCCNC2CCCCC2N)c(C)c1 (stereo partly drawn) [Example 6, 1-{(2R,5S)-5-[3-(2-Amino-cyclohexylamino)-propyl]-4-[(R)-2-amino-3-(2,4-dimethyl-phenyl)-propyl]-2-methyl-piperazin-1-yl}-2-naphthalen-2-yl-ethanone] | 535 nM | 47% | 255 nM | 88% | 38 nM | 98% | 33% | 580 nM |  |  |  |  |  |  | 
7 | Cc1ccc(C[C@H](CN2C[C@@H](C)N(C(=O)Cc3ccc4ccccc4c3)C[C@@H]2CCCN(C)C2CCN(C)C2)N(C)C)c(C)c1 (stereo partly drawn) [Example 7, 1-((2R,5S)-4-[(R)-2-Dimethylamino-3-(2,4-dimethyl-phenyl)-propyl]-2-methyl-5-{3-[methyl-(1-methyl-pyrrolidin-3-yl)-amino]-propyl}-piperazin-1-yl)-2-aphthalen-2-yl-ethanone] |  | 0% |  | 56% |  | 44% | 4% |  |  |  |  |  |  |  | 
8 | Cc1ccc(C[C@H](CN2C[C@@H](C)N(C(=O)Cc3ccc4ccccc4c3)C[C@@H]2CCCN(C)C2CCCCC2N(C)C)N(C)C)c(C)c1 (some centres unmarked) [Example 8] |  | 28% |  | 52% |  | 48% | 26% |  |  |  |  |  |  |  | 
9 | Cc1ccc(C[C@H](CN2C[C@@H](C)N(C(=O)Cc3ccc4ccccc4c3)C[C@@H]2CCCN(C)CCN(C)C)N(C)C)c(C)c1 [Example 9, 1-((2R,5S)-4-[(R)-2-Dimethylamino-3-(2,4-dimethyl-phenyl)-propyl]-5-{3-[(2-dimethylamino-ethyl)-methyl-amino]-propyl}-2-methyl-piperazin-1-yl)-2-naphthalen-2-yl-ethaone] |  | 9% |  | 49% |  | 51% | 0% |  |  |  |  |  |  |  | 
10 | Cc1ccc(C[C@H](CN2C[C@@H](C)N(C(=O)Cc3ccc4ccccc4c3)C[C@@H]2CCCN2CCN(C)CC2)N(C)C)c(C)c1 [Example 10, 1-{(2R,5S)-4-[(R)-2-Dimethylamino-3-(2,4-dimethyl-phenyl)-propyl]-2-methyl-5-[3-(4-methyl-piperazin-1-yl)-propyl]-piperazin-1-yl}-2-naphthalen-2-I-ethanone] |  | 15% |  | 47% |  | 54% | 28% |  |  |  |  |  |  |  | 
11 | CC(C)C[C@@H]1CN(C[C@H](N)Cc2ccc(Cl)cc2Cl)[C@@H](CCCNCCN)CN1C(=O)Cc1ccc2ccccc2c1 [Example 18, 1-{(2R,5S)-4-[(R)-2-Amino-3-(2,4-dichloro-phenyl)-propyl]-5-[3-(2-amino-ethylamino)-propyl]-2-isobutyl-piperazin-1-yl}-2-naphthalen-2-yl-ethanone] | 297 nM |  | 106 nM |  | 188 nM |  |  |  |  |  | 3% | 3.5% | 6.2% | 30% | 359 nM
